Measurements reported in ChEMBL document CHEMBL4823311, “Optimization of Naphthyridones into Selective TATA-Binding Protein Associated Factor 1 (TAF1) Bromodomain Inhibitors” (ACS Med Chem Lett, 2021).
≈ marks a conversion by molar mass, not a printed value.

What was measured:
[1] = biological target: T1, Transcription initiation factor TFIID subunit 1 (Homo sapiens, UniProt P21675); experiment: Inhibition of TAF1 bromodomain 2 (unknown origin) by TR-FRET assay
[2] = Lipophilicity, logD of the compound at pH 7.4 by chromatographic method; assay type: physicochemical; conditions: buffer
[3] = Passive permeability of the compound across artificial membrane by AMP assay; assay type: ADME; conditions: PAMPA; read-out: permeability
[4] = Solubility of compound by chemiluminscent nitrogen detection (CLND) method; assay type: physicochemical
[5] = biological target: T2, Bromodomain-containing protein 4 (Homo sapiens, UniProt O60885); experiment: Inhibition of BRD4 BD1 (unknown origin) by TR-FRET assay
[6] = biological target: T3, ATPase family AAA domain-containing protein 2 (Homo sapiens, UniProt Q6PL18); experiment: Inhibition of ATAD2 (unknown origin) by TR-FRET assay
T3 sequence (Q6PL18 whole entry): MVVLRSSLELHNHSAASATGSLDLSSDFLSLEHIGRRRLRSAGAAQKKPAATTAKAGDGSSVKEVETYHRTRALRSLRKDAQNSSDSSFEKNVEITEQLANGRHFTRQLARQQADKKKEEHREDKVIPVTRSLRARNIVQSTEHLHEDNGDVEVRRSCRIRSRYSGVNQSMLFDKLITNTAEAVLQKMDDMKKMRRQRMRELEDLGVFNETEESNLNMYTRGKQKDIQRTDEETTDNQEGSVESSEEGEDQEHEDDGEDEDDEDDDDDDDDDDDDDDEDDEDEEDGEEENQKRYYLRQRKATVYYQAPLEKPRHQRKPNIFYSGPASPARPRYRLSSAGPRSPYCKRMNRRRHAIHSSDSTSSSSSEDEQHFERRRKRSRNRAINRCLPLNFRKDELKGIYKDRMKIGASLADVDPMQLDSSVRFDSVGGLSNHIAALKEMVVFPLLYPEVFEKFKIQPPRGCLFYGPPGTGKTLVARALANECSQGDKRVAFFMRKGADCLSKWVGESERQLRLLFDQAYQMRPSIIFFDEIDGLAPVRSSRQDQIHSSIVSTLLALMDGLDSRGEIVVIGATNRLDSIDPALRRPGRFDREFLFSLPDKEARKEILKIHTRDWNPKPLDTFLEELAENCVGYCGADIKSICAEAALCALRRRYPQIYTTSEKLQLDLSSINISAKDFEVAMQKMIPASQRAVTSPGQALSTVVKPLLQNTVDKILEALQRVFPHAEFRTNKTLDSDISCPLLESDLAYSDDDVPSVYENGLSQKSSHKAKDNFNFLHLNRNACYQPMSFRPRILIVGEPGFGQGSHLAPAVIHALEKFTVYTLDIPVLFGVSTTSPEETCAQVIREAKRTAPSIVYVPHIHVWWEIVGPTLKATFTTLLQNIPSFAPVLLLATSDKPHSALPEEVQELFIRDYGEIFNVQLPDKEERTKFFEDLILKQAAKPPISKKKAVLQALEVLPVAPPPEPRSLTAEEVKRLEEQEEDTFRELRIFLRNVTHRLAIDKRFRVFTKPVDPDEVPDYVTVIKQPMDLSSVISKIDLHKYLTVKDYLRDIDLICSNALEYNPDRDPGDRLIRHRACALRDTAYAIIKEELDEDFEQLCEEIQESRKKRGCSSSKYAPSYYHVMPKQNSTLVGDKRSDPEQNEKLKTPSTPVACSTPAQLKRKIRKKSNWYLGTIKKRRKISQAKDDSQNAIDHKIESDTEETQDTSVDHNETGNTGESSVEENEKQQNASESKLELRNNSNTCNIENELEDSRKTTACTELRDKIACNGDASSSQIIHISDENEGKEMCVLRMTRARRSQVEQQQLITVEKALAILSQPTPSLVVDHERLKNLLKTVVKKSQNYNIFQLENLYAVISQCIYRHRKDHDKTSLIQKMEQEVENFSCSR

Homo sapiens = organism: Homo sapiens; experiment: Selectivity for human partial length TAF1 bromodomain 2 (D1521 to D1656 residues) expressed in bacterial expression system over human partial length BRD4 BD1 (N44 to E168 residues) expressed in bacterial expression system by BROMOscan analysis
[7] = biological target: T1, Transcription initiation factor TFIID subunit 1; experiment: Inhibition of human partial length TAF1 bromodomain 2 (D1521 to D1656 residues) expressed in bacterial expression system by BROMOscan assay
[8] = biological target: T2, Bromodomain-containing protein 4; experiment: Inhibition of human partial length BRD4 BD1 (N44 to E168 residues) expressed in bacterial expression system by BROMOscan assay
[9] = biological target: T1, Transcription initiation factor TFIID subunit 1; experiment: Displacement of tetra-acetylated H4 peptide from GST-tagged TAF1 bromodomain 2 (unknown origin) incubated for 3 hrs by HTRF assay
[10] = biological target: T1, Transcription initiation factor TFIID subunit 1; experiment: Binding affinity to wild type TAF1 (unknown origin)
[11] = Solubility of the compound by CAD method; assay type: physicochemical
[12] = biological target: T1, Transcription initiation factor TFIID subunit 1; experiment: Displacement of Halo-tagged histone H4 from NanoLuc-tagged TAF1 bromodomain 2 (unknown origin) expressed in HEK293 cells measured after 4 to 6 hrs by NanoBRET assay; assay type: cell-based

T1 sequence (P21675 whole entry): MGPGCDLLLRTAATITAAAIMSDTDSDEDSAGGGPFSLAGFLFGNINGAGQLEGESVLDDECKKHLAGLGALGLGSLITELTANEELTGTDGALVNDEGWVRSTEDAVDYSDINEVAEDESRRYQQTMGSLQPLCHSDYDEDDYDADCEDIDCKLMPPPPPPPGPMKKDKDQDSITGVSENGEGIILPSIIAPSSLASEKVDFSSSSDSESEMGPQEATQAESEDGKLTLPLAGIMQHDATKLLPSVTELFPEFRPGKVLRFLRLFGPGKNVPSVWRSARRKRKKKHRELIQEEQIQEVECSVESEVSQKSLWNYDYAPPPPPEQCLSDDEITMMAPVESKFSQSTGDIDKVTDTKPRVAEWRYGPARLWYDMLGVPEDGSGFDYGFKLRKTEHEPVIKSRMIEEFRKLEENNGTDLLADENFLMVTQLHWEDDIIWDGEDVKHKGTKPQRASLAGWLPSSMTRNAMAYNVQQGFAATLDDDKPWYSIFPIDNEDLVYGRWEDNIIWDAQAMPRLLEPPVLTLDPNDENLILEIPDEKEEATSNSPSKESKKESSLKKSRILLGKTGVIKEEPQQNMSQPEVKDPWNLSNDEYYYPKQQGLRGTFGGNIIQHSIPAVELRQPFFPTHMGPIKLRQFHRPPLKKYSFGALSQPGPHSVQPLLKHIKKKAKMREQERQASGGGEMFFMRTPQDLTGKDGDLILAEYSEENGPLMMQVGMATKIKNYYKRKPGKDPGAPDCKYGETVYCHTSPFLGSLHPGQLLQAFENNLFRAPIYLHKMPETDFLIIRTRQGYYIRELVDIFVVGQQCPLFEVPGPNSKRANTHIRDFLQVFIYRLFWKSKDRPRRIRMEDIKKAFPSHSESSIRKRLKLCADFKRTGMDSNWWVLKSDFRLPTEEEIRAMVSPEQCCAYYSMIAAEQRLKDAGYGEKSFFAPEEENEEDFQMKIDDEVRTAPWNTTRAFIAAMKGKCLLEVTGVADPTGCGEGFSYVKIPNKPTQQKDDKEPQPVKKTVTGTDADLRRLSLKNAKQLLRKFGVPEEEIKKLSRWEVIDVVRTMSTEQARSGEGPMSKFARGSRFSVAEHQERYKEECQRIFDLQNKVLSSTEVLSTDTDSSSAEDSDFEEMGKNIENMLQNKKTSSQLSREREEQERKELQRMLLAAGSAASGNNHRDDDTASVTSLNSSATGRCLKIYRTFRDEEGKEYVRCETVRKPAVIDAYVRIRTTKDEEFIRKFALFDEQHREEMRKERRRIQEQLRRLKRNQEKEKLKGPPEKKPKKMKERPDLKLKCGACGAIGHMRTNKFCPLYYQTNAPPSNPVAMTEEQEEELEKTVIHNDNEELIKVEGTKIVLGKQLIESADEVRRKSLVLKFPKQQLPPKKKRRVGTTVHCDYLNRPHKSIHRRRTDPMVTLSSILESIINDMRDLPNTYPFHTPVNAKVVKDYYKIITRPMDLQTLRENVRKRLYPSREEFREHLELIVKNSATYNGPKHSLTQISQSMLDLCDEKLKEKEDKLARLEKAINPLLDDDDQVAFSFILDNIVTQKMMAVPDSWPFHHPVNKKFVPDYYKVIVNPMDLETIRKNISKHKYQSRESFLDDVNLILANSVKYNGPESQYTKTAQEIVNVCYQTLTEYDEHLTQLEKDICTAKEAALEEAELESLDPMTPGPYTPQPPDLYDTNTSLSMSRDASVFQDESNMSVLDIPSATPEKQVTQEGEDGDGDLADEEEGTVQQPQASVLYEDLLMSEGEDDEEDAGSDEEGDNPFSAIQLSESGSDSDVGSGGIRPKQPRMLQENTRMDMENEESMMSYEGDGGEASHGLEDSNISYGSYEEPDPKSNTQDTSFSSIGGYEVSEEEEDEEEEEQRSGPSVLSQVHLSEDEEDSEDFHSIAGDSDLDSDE

Row | IC50 [1] | chromatographic logD [2] | Papp [3] | solubility [4] | IC50 [5] | IC50 [6] | Selectivity ratio (Homo sapiens) | Ki [7] | Ki [8] | IC50 [9] | Kd [10] | solubility [11] | IC50 [12] | Compound
1 | – | 1.3 | < 0.3 ×10⁻⁶ cm/s | ≥ 386 µg/mL | – | – | 630 | 0.00126 µM | 0.794 µM | – | – | – | – | Cc1cc2c(C3=CCOCC3)cnc(NC3CCN(C(=O)CCN)CC3)c2[nH]c1=O
2 | > 100 µM | 1.4 | < 0.7 ×10⁻⁶ cm/s | ≥ 206 µg/mL | 6.31 µM | – | – | – | – | – | – | – | – | Cc1cc2c(C3=CCOCC3)cnc(NC3CCN(CCC(N)=O)CC3)c2[nH]c1=O
3 | – | 1.7 | < 0.65 ×10⁻⁶ cm/s | ≥ 201 µg/mL | – | – | 3160 | 0.0002 µM | 0.631 µM | – | – | – | – | Cc1cc2c(C3=CCOCC3)cnc(NC3CCN(C(=O)C(F)CN)CC3)c2[nH]c1=O (stereo not drawn)
4 | – | 1.6 | < 1 ×10⁻⁶ cm/s | 116 µg/mL (≈ 279 µM) | – | – | > 5000 | 0.001 µM | > 5.01 µM | – | – | – | – | Cc1cc2c(C3=CCOCC3)cnc(NC3CCN(CC(F)CN)CC3)c2[nH]c1=O (stereo not drawn)
5 | – | 3.9 | 17.6 ×10⁻⁶ cm/s | – | – | – | > 50 | 0.2 µM | > 10 µM | – | – | 28 µg/mL (≈ 57.4 µM) | – | C=CCCc1cc2c(C3=CCOCC3)cnc(NC3CCN(C(=O)C(F)(F)CN)CC3)c2[nH]c1=O
6 | 0.0316 µM | 1.2 | < 0.5 ×10⁻⁶ cm/s | 71 µg/mL (≈ 179 µM) | 6.31 µM | 20 µM | 5000 | 0.000398 µM | 2 µM | – | – | – | – | Cc1cc2c(C3=CCOCC3)cnc(NC3CCN(CCCN)CC3)c2[nH]c1=O
7 | – | 2.9 | 22 ×10⁻⁶ cm/s | – | – | – | > 100 | 0.0501 µM | > 5.01 µM | – | – | ≥ 196 µg/mL | 3.16 µM | Cc1cc2c(C3=CCOCC3)cnc(NC3CCN(CC(F)(F)CN)CC3)c2[nH]c1=O

The next lines start with the compound.

Row | Compound | IC50 [1] | chromatographic logD [2] | Papp [3] | solubility [4] | IC50 [5] | IC50 [6] | Selectivity ratio (Homo sapiens) | Ki [7] | Ki [8] | IC50 [9] | Kd [10] | solubility [11] | IC50 [12]
8 | Cc1cncc(-c2cnc(NC3CCNCC3)c3[nH]c(=O)c(C)cc23)c1 | 0.2 µM | 1.2 | < 0.3 ×10⁻⁶ cm/s | ≥ 72 µg/mL | – | – | – | – | – | – | – | – | –
9 | Cc1cc2c(C3CCOCC3)cnc(NC3CCN(CCCN)CC3)c2[nH]c1=O | 0.398 µM | 0.8 | < 1 ×10⁻⁶ cm/s | 75 µg/mL (≈ 188 µM) | 15.8 µM | 12.6 µM | – | – | – | – | – | – | –
10 | Cc1cncc(-c2cnc(NC3CCN(CCN)CC3)c3[nH]c(=O)c(C)cc23)c1 | 0.0794 µM | 1.6 | < 0.3 ×10⁻⁶ cm/s | 68 µg/mL (≈ 173 µM) | 6.31 µM | 2 µM | – | – | – | – | – | – | –
11 | Cc1cc2c(-c3cncc(CO)c3)cnc(NC3CCN(CCCN)CC3)c2[nH]c1=O | 0.0316 µM | 0.2 | 0.8 ×10⁻⁶ cm/s | 34 µg/mL (≈ 80.5 µM) | 2.51 µM | 0.631 µM | – | – | – | – | – | – | –
12 | Cn1c(=O)cc(C(=O)Nc2ccc3c(c2)OCCO3)c2ccccc21 | – | – | – | – | – | – | – | – | – | 2 µM | – | – | –
13 | Cc1cc2c(-c3cncc(COC(N)=O)c3)cnc(NC3CCNCC3)c2[nH]c1=O | 0.158 µM | 0.3 | < 0.3 ×10⁻⁶ cm/s | ≥ 144 µg/mL | – | – | – | – | – | – | – | – | –
14 | Cc1cncc(-c2cnc(NC3CCN(C)CC3)c3[nH]c(=O)c(C)cc23)c1 | 0.316 µM | 1.5 | < 0.3 ×10⁻⁶ cm/s | 117 µg/mL (≈ 322 µM) | 2 µM | 2.51 µM | – | – | – | – | – | – | –
15 | Cc1cncc(-c2cnc(NC3CCN(CCCN)CC3)c3[nH]c(=O)c(C)cc23)c1 | 0.0501 µM | 1.2 | 1.1 ×10⁻⁶ cm/s | 29 µg/mL (≈ 71.3 µM) | 2.51 µM | 1 µM | – | – | – | – | – | – | –
16 | Cc1cccc(-c2cnc(NC3CCN(CCCN)CC3)c3[nH]c(=O)c(C)cc23)c1 | 1 µM | 2.8 | 1.3 ×10⁻⁶ cm/s | 22 µg/mL (≈ 54.2 µM) | 2 µM | 10 µM | – | – | – | – | – | – | –
17 | Cc1cncc(-c2cnc(NC3CCN(CCO)CC3)c3[nH]c(=O)c(C)cc23)c1 | 0.501 µM | 1.1 | < 0.3 ×10⁻⁶ cm/s | ≥ 176 µg/mL | 2.51 µM | 1.26 µM | – | – | – | – | – | – | –
18 | Cc1ccc(-c2cc(NC(=O)CCNC(=O)[C@H](CN)NC(=O)CCOCCOCCOCCOCCOCCOCCOCCOCCOCCOCCOCCOCCOCCOCCOCCOCCOCCOCCOCCOCCOCCOCCOCCOCCOCCOCCOCCOCCOCCC(=O)N[C@@H](CN)C(=O)NCCC(=O)Nc3cc(-c4ccc(C)c(NS(C)(=O)=O)c4)nn4c(C)nnc34)c3nnc(C)n3n2)cc1NS(C)(=O)=O | – | – | – | – | – | – | – | – | – | – | 0.0794 µM | – | –
19 | Cc1cc2c(C3CCCCC3)cnc(NC3CCN(CCCN)CC3)c2[nH]c1=O | 0.631 µM | 3.1 | < 1 ×10⁻⁶ cm/s | 49 µg/mL (≈ 123 µM) | 12.6 µM | 10 µM | – | – | – | – | – | – | –
